Results from the supplement of paper PMC11451515.

System: P12-Ichikawa
Experiment: cell viability relative to DMSO control; higher = less cytotoxic
Conditions: 48 h
Method in brief: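 Library compounds in DMSO were pin-dosed in an 11-point threefold series (47 μM to 0.79 nM) onto leukemia cells in 1536-well plates (5 μl). Plates held 500 cells/well of NOMO1 or SEM or 1000 cells/well of P12-Ichikawa, each adapted for at least four passages in each medium. Luminescence was read with CellTiter-Glo One after 48 h at 37°C. Viability means the per-plate percentage relative to DMSO wells, using cell-free wells as background.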

[1] = HPLM + 10% dialyzed FBS, 0.000781 µM
[2] = HPLM + 10% dialyzed FBS, 0.00234 µM
[3] = HPLM + 10% dialyzed FBS, 0.00702 µM
[4] = HPLM + 10% dialyzed FBS, 0.0211 µM
[5] = HPLM + 10% dialyzed FBS, 0.0632 µM
[6] = HPLM + 10% dialyzed FBS, 0.19 µM
[7] = HPLM + 10% dialyzed FBS, 0.569 µM
[8] = HPLM + 10% dialyzed FBS, 1.71 µM
[9] = HPLM + 10% dialyzed FBS, 5.12 µM
[10] = HPLM + 10% dialyzed FBS, 15.4 µM
[11] = HPLM + 10% dialyzed FBS, 46.1 µM
[12] = RPMI 5 mM glucose + 10% FBS, 0.000781 µM
[13] = RPMI 5 mM glucose + 10% FBS, 0.00234 µM
[14] = RPMI 5 mM glucose + 10% FBS, 0.00702 µM
[15] = RPMI 5 mM glucose + 10% FBS, 0.0211 µM
[16] = RPMI 5 mM glucose + 10% FBS, 0.0632 µM
[17] = RPMI 5 mM glucose + 10% FBS, 0.19 µM
[18] = RPMI 5 mM glucose + 10% FBS, 0.569 µM
[19] = RPMI 5 mM glucose + 10% FBS, 1.71 µM
[20] = RPMI 5 mM glucose + 10% FBS, 5.12 µM
[21] = RPMI 5 mM glucose + 10% FBS, 15.4 µM
[22] = RPMI 5 mM glucose + 10% FBS, 46.1 µM
[23] = RPMI 5 mM glucose + 10% dialyzed FBS, 0.000781 µM
[24] = RPMI 5 mM glucose + 10% dialyzed FBS, 0.00234 µM
[25] = RPMI 5 mM glucose + 10% dialyzed FBS, 0.00702 µM
[26] = RPMI 5 mM glucose + 10% dialyzed FBS, 0.0211 µM
[27] = RPMI 5 mM glucose + 10% dialyzed FBS, 0.0632 µM
[28] = RPMI 5 mM glucose + 10% dialyzed FBS, 0.19 µM
[29] = RPMI 5 mM glucose + 10% dialyzed FBS, 0.569 µM
[30] = RPMI 5 mM glucose + 10% dialyzed FBS, 1.71 µM
[31] = RPMI 5 mM glucose + 10% dialyzed FBS, 5.12 µM
[32] = RPMI 5 mM glucose + 10% dialyzed FBS, 15.4 µM
[33] = RPMI 5 mM glucose + 10% dialyzed FBS, 46.1 µM

SMILES | cell viability [1] [%] | cell viability [2] [%] | cell viability [3] [%] | cell viability [4] [%] | cell viability [5] [%] | cell viability [6] [%] | cell viability [7] [%] | cell viability [8] [%] | cell viability [9] [%] | cell viability [10] [%] | cell viability [11] [%] | cell viability [12] [%] | cell viability [13] [%] | cell viability [14] [%] | cell viability [15] [%] | cell viability [16] [%] | cell viability [17] [%] | cell viability [18] [%] | cell viability [19] [%] | cell viability [20] [%] | cell viability [21] [%] | cell viability [22] [%] | cell viability [23] [%] | cell viability [24] [%] | cell viability [25] [%] | cell viability [26] [%] | cell viability [27] [%] | cell viability [28] [%] | cell viability [29] [%] | cell viability [30] [%] | cell viability [31] [%] | cell viability [32] [%] | cell viability [33] [%]
CC(C)c1ccccc1Cc1cc(C(=O)Nc2ccc([S+](=O)([O-])c3ccccc3C(C)(C)C)cc2)c(O)c(O)c1O | 112 | 112 | 111 | 113 | 111 | 110 | 106 | 102 | 101 | 97.2 | 91.5 | 112 | 116 | 116 | 114 | 118 | 115 | 107 | 107 | 108 | 103 | 87.7 | 111 | 112 | 117 | 108 | 107 | 114 | 108 | 107 | 97.1 | 93.3 | 92.9
CC(C)NCC(O)c1ccc(NS(C)(=O)=O)cc1 (stereo unspecified) | 104 | 113 | 96.3 | 105 | 117 | 111 | 104 | 108 | 98 | 102 | 100 | 109 | 102 | 99.9 | 105 | 97.9 | 110 | 106 | 112 | 101 | 98.7 | 101 | 101 | 102 | 100 | 98.6 | 97 | 94.3 | 99.2 | 91 | 91 | 99.2 | 96.6
CN[C@@H]1C[C@H]2O[C@@](C)([C@@H]1OC)n1c3ccccc3c3c4c(c5c6ccccc6n2c5c31)C(=O)N[C@H]4O | 80.5 | 86.5 | 85.5 | 89.3 | 84.7 | 75.9 | 63.7 | 22.5 | 16.8 | 23.2 | 7.88 | 80 | 78 | 83.8 | 84.2 | 78.4 | 63.4 | 44.5 | 12.8 | 12.8 | 14.8 | 15 | 84.7 | 90.4 | 85.9 | 85.8 | 81.2 | 55.4 | 62 | 29 | 14 | 17.7 | 11.5
O=C(CCc1ccc(O)cc1)c1c(O)cc(O)cc1O[C@@H]1O[C@H](CO)[C@@H](O)[C@H](O)[C@H]1O | 96.3 | 96.6 | 94.1 | 92.8 | 88 | 96.3 | 86.2 | 84 | 85.1 | 81.9 | 85.5 | 90.2 | 85.4 | 86.5 | 86.5 | 82.4 | 83.6 | 88.1 | 82.6 | 82.5 | 81.6 | 86.1 | 84.1 | 84.3 | 95 | 93.9 | 82.8 | 85.1 | 81.8 | 89.3 | 83.2 | 80.2 | 82.8
NC(=O)Nc1cc(-c2ccc(CN3CCOCC3)cc2)sc1C(N)=O | 121 | 119 | 126 | 117 | 110 | 19.7 | 8.91 | 8.7 | 7.42 | 7.74 | 17.1 | 104 | 107 | 110 | 111 | 94.9 | 32.1 | 11.5 | 8.89 | 8.7 | 10 | 18.6 | 117 | 114 | 121 | 115 | 120 | 26.9 | 17.8 | 19.4 | 19 | 21.2 | 33.4
Nc1nc(OCc2ccccc2)c2nc[nH]c2n1 | 108 | 110 | 117 | 115 | 120 | 120 | 120 | 118 | 114 | 112 | 113 | 97.9 | 107 | 120 | 117 | 124 | 111 | 114 | 118 | 120 | 120 | 111 | 105 | 114 | 119 | 117 | 121 | 117 | 122 | 120 | 121 | 120 | 119
COc1cccc2c1C(=O)c1c(O)c3c(c(O)c1C2=O)C[C@@](O)(C(C)=O)C[C@@H]3O[C@H]1C[C@H](N)[C@H](O)[C@H](C)O1 | 107 | 112 | 115 | 109 | 114 | 101 | 6.62 | 7.98 | 8.25 | 9.65 | 8.17 | 94.8 | 112 | 113 | 104 | 103 | 73.2 | 7.42 | 7.61 | 7.8 | 7.04 | 9.59 | 102 | 107 | 107 | 106 | 98 | 70.8 | 8.12 | 7.49 | 7.97 | 7.6 | 8.42
